Assay results reported in paper PMC9782211 (Microorganisms, 2022).

Experiments:
[1] = target: hERG ion channel (Homo sapiens, UniProt Q12809); assay: Manual patch clamp, hERG channel currents; format: cell-based; details: 1 µg/mL, fraction
Method: Manual patch clamp experiments were performed in the whole cell configuration [20] at room temperature. An EPC 10 patch clamp amplifier and the PatchMaster software (v2x90.5; both HEKA Elektronik, Germany) were used. […] The data were analyzed using R (version 3.6.3).
The manual patch clamp recordings on the hERG ion channel were performed with the same stimulation protocol as previously described, with an adjusted holding potential of −70 mV. After the establishment of the whole cell, the stimulation protocol was executed every 15 s for a period of 20 min. The application protocol had the following course: 5 min negative control period with an application of 0.1% DMSO, 10 min application of the test compound in one concentration, and 5 min positive control period with an application of E4031 (10 µM).
The extracellular solution for the recordings contained (in mM): 145 NaCl, 4 KCl, 10 glucose, 10 HEPES, 2 CaCl2, and 1 MgCl2; pH was adjusted to 7.4 by adding NaOH. The osmolarity of the solution was adjusted to 305 mOsmol/kg. The intracellular solution contained (in mM): 120 KCl, 1.7 MgCl2, 4 K2ATP, 5 CaCl2, 10 HEPES, and 10 EGTA; pH was adjusted to 7.2 by adding KOH. The osmolarity was adjusted to 292 mOsmol/kg.

[2] = test system: local lymph node; assay: Local lymph node assay (LLNA), skin sensitization; format: in vivo, mouse
Method: • Application of substance on external surface of each ear (25 µL/ear) for 3 consecutive days • On day 6, intravenous injection of tritiated methyl thymidine (^3HTdR) in tail vein, and after about 6 h, sacrification and preparation of lymph node cell • Cell proliferation in lymph node measured by incorporation of ^3HTdR

[3] = test system: male and female Wistar rats; assay: 14-day repeated dose toxicology, continuous intravenous infusion; format: in vivo, rat
Method: Continuous intravenous infusion was performed over 14 days with 0.5 mg/kg, 3.2 mg/kg, and 20.0 mg/kg Pep19-2.5 and compared to the vehicle in male and female Wistar rats. Groups comprised 10 animals per gender, with an additional 5 animals per gender for recovery animals in the vehicle and high dose groups. The details of the 14-day repeated dose toxicity study will be published elsewhere.
Continuous intravenous infusion was performed over 14 days with 0.5 mg/kg, 3.2 mg/kg and 20.0 mg/kg Pep19-2.5 and compared to the vehicle in male and female Wistar rats. Groups comprised 10 animals per gender, with an additional 5 animals per gender for recovery animals in the vehicle and high dose groups. Based on the parameters determined, the following results were found: […]

[4] = test system: human erythrocytes; assay: Hemolysis assay; format: cell-based; details: pH 7.4, 37 °C, 30 min
Method: The activity of the peptides to lyse freshly isolated human erythrocytes was determined in PBS, pH 7.4 at 37 °C. Dilutions were prepared in duplicate in a round bottom microtiter plate. For that, 20 µL erythrocytes (5 · 10^8 cells/mL) was incubated with 80 µL of a peptide sample at 37 °C for 30 min in a humidified box. The hemolytic activity after incubation was measured by transferring the supernatants into another empty microtiter plate. This plate was read on a microtiter plate reader at 405 nm. Hemolytic activity was expressed as the percentage of released hemoglobin with respect to water/buffer controls (100% release) or controls processed without peptides (0% release).
Red blood cells (RBCs) were obtained from citrated human blood by centrifugation (1500× g, 10 min), washed three times with isotonic 20 mM phosphate-NaCl buffer (pH 7.4), and suspended in the same buffer at a concentration equivalent to 5% of the normal hematocrit. […] The supernatants were analyzed spectrophotometrically (with absorbance at 543 nm) for hemoglobin, and results were expressed as the percentage released with respect to sonicated controls (100% release) or controls processed without peptides (0% release).

[5] = test system: human mononuclear cells (hMNCs); assay: MTT test, metabolic activity of human mononuclear cells; format: cell-based
Method: Furthermore, the MTT assay was performed to determine the metabolic activity of the cells. In this test, the determination of cell viability is based on the reduction of the yellow water-soluble substance 3-(4,5-Dimethylthiazol-2-yl)-2,5-diphenyltetrazoliumbromid (MTT) into a blue-violet water-insoluble formacan.

[6] = Maximum attainable test concentration based on solubility; format: physicochemical; details: in aqueous 1% Pluronic PE9200
[7] = test system: LS-174T cells (human colon adenocarcinoma cell line); assay: Bionas chip-based system, respiration rate; format: cell-based; details: 24 h peptide exposure
Method: Cytotoxicity was assayed by using the chip-based Bionas system with four different cell types. These include human hepatoma cells (HepG2), human colon adenocarcinoma cells (LS-174T), human acute lymphocytic leukemic cells (Jurkat), and human peripheral blood mononuclear cells (hPBMC), provided by Cell Line Services (Piscataway, NJ, USA) and ProBioGen (Berlin, Germany). The cells were seeded on chips, with a density of 200,000 cells/chip for HepG2 and LS-174T, 300,000 cells/chip for Jurkat, and 2 million cells/chip for PBMC.
A metabolic investigation with four cells and cell lines on the effect of Pep19-2.5 on selected cell parameters was performed. In detail, see Table 1.
The analysis was performed in the Bionas® 2500 analyzing system by seeding the cells on the chips, with cell numbers of 200,000 for HepG2 cells and LS-174T cells, and 300,000 for Jurkat cells. The suspended cells were embedded on the day of the experiment in agarose and immediately put into the Bionas® 2500 analyzing system. The settling phase (‘RM’) was 5 h. The peptides were added after 5 h for 24 h, then a regeneration phase followed for 4 h (‘RM’), and in the last phase the cells were lysed with 0.2% triton in fresh medium (‘TX’). For the parameters acidification, respiration, and adhesion (impedance), the mean values from two experiments were calculated. […]

Chain of hERG ion channel (Q12809 whole entry): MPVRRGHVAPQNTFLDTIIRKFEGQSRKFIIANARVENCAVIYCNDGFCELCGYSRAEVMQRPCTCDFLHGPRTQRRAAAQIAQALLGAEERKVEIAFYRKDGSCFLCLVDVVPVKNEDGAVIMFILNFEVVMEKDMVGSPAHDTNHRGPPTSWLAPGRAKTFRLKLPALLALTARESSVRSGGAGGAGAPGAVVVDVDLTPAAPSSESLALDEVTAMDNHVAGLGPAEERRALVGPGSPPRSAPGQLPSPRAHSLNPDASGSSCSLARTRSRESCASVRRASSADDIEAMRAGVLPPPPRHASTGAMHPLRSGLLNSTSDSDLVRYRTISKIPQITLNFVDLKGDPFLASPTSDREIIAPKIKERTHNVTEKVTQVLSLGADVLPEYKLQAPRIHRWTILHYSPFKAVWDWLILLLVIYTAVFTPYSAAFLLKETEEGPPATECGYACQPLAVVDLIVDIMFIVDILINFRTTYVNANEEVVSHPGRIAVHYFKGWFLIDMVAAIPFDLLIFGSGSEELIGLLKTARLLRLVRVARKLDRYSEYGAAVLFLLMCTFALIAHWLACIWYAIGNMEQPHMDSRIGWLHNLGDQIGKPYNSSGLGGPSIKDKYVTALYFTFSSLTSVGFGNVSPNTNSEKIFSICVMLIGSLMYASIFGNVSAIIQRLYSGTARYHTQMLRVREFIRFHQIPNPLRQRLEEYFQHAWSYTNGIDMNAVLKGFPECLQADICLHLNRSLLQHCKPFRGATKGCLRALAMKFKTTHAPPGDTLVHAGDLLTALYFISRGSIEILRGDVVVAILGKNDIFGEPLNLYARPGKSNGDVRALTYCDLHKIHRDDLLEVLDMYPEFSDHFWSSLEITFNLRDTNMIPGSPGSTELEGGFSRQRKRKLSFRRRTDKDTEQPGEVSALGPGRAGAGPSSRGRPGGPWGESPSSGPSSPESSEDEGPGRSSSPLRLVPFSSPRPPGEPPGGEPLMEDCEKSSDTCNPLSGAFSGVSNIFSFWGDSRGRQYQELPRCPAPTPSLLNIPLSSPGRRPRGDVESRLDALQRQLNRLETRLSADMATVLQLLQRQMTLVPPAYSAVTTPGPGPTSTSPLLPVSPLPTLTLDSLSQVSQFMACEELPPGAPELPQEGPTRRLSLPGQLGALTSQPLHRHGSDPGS

N=C(N)NCCC[C@H](NC(=O)[C@H](Cc1ccc(O)cc1)NC(=O)[C@H](CCCCN)NC(=O)[C@H](CCCCN)NC(=O)[C@H](CS)NC(=O)CN)C(=O)N[C@@H](CCCNC(=N)N)C(=O)N[C@@H](Cc1ccccc1)C(=O)N[C@@H](CCCNC(=N)N)C(=O)N[C@@H](Cc1c[nH]c2ccccc12)C(=O)N[C@@H](CCCCN)C(=O)N[C@@H](Cc1ccccc1)C(=O)N[C@@H](CCCCN)C(=O)NCC(=O)N[C@@H](CCCCN)C(=O)N[C@@H](Cc1ccccc1)C(=O)N[C@@H](Cc1c[nH]c2ccccc12)C(=O)N[C@@H](Cc1ccccc1)C(=O)N[C@@H](Cc1c[nH]c2ccccc12)C(=O)NCC(N)=O [Pep19-2.5]
Rel. Rem. Current ± SD (Manual Patch-Clamp) [1]: 1.00 ± 0.04 | skin sensitization potential ([2]; 5%, 2.5%, 1% and 0.5% (w/v) in 1% Pluronic aqueous solution, 25 µL/ear, 3 consecutive days, 3HTdR incorporation): no skin sensitization potential | preliminary irritation/toxicity test ([2]; up to 5% (w/v) in aqueous 1% Pluronic): no adverse effect | injection site findings ([3]; 20 mg/kg dose group): local irritating effect | body weight gain ([3]; all dose groups): No statistically significant effect | ophthalmology, clinical chemistry, urine, organ weights ([3]; all dose groups): not affected | aPTT ([3]; female Wistar rats, 0.5 mg/kg/day, n = 10): 19.9 ± 2.2 s | PT ([3]; female, 0.5 mg/kg/day, n = 10): 20.3 ± 2.5 s | TT ([3]; female, 0.5 mg/kg/day, n = 10): 25.7 ± 1.0 s | TT ([3]; female, 3.2 mg/kg/day, n = 10): 25.4 ± 1.0 s | TT ([3]; female, 20.0 mg/kg/day, n = 10): 25.8 ± 0.7 s | mortality ([3]; high dose group 20 mg/kg): One male of the high dose group died | reticulocytes ([3]; high dose group, both genders, complete recovery): slightly reduced | behavioural findings ([3]; high dose group, single animals): test item-related behavioural findings (increased activity, muscle tremor, increased incidence of animals showing signs of discomfort, such as chromorhinorrhea or piloerection) | aPTT ([3]; male Wistar rats, 0.5 mg/kg/day, end of infusion, mean ± SD, n = 9): 19.9 ± 1.7 s | TT ([3]; male, 0,5 mg/kg/day, n = 9): 25.3 ± 1.0 s | PT ([3]; male, 0.5 mg/kg/day, n = 9): 20.0 ± 1.1 s | PT ([3]; male, 3.2 mg/kg/day, n = 10): 21.5 ± 1.3 s | TT ([3]; male, 3.2 mg/kg/day, n = 10): 25.0 ± 0.9 s | aPTT ([3]; male, 3.2 mg/kg/day, n = 10): 18.6 ± 1.8 s | TT ([3]; male, 20.0 mg/kg/day, n = 7): 25.0 ± 0.8 s | PT ([3]; male, n = 7, printed 0.5 mg/kg/day): 20.9 ± 1.3 s | histopathological systemic toxicity ([3]; rat, in vivo): absence of any histopathological systemic toxicity | lysis of erythrocytes ([4]; at 100 μg/mL, released hemoglobin vs 100% release control): ≤ 20% | concentration above which cytotoxicity increases (hemolysis) [4]: above 20 μg/mL | metabolic state of the hMNC ([5]; at 100 μg/mL): decreases dramatically | concentration above which cytotoxicity increases (MTT) ([5]; hMNC, MTT test, Figure 1): above 20 μg/mL | maximum attainable test concentration based on solubility [6]: 5 % (w/v) | concentration above which toxic effects are observed (respiration rate) [7]: above 20 μg/mL
